Results as given in patent US9328106B2, “Cyclic ether pyrazol-4-yl-heterocyclyl-carboxamide compounds and methods of use” (Genentech, Inc., priority 2012, dated 2016).
pKi: −log10 of the molar value.

Biological target: PIM1 (Homo sapiens (Human), UniProt P11309)
Assay: biochemical
Type: biochemical
Settings: not given

PIM1, sequence (P11309 whole entry): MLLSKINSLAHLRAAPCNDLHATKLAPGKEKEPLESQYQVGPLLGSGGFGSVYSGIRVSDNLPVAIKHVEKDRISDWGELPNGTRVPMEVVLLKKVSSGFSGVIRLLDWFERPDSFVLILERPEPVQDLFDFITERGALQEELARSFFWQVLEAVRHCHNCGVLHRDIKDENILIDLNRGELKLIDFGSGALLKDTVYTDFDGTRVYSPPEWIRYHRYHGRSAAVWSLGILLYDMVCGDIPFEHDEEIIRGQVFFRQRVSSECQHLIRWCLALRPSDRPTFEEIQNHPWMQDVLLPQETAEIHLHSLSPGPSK

| pKi | SMILES |
| --- | --- |
| 9.87 | [2H]C([2H])([2H])O[C@@H]1CO[C@H](c2c(NC(=O)c3nc(-c4c(F)cccc4F)sc3N)cnn2C)CC[C@H]1N [Example 174, 5-Amino-N-[5-[(2S,5R,6S)-5-amino-6-(trideuteriomethoxy)oxepan-2-yl]-1-methyl-pyrazol-4-yl]-2-(2,6-difluorophenyl)thiazole-4-carboxamide] |

Same assay, conditions: 20 pM PIM1, 1 μM FAM-peptide, 10 μM ATP, 90 minutes at room temperature; read-out: PIM1 LC3K (KI)

| SMILES | pKi |
| --- | --- |
| CO[C@H]1C[C@H](c2c(NC(=O)c3nc(-c4c(F)cccc4F)sc3N)cnn2C)OCC[C@@H]1N [Example 138, 5-amino-N-(5-((2R,4S,5S)-5-amino-4-methoxyoxepan-2-yl)-1-methyl-1H-pyrazol-4-yl)-2-(2,6-difluorophenyl)thiazole-4-carboxamide] | 8.73 |
| Cn1ncc(NC(=O)c2nc(-c3ccccc3F)sc2N)c1C12CCC(CN)(CC1)O2 [Example 139, 5-amino-N-[5-[1-(aminomethyl)-7-oxabicyclo[2.2.1]heptan-4-yl]-1-methyl-pyrazol-4-yl]-2-(2-fluorophenyl)thiazole-4-carboxamide] | 10.28 |
| Cn1ncc(NC(=O)c2nc(-c3c(F)cccc3F)sc2N)c1C1C[C@@H](N)[C@H](F)CCO1 (stereo partly drawn) [Example 141, 5-amino-N-(5-((4R,5R)-4-amino-5-fluorooxepan-2-yl)-1-methyl-1H-pyrazol-4-yl)-2-(2,6-difluorophenyl)thiazole-4-carboxamide] | 10.15 |
| CC1C(c2c(NC(=O)c3nc(-c4c(F)cccc4F)sc3N)cnn2C)OCC(C)(O)C1N (centres unmarked) [Example 142, 5-amino-N-[5-(4-amino-5-hydroxy-3,5-dimethyl-tetrahydropyran-2-yl)-1-methyl-pyrazol-4-yl]-2-(2,6-difluorophenyl)thiazole-4-carboxamide] | 9.36 |
| Cn1ncc(NC(=O)c2nc(-c3c(F)cccc3F)sc2N)c1C1CCC(N)COC1 (centres unmarked) [Example 144, 5-amino-N-[5-(6-aminooxepan-3-yl)-1-methyl-pyrazol-4-yl]-2-(2,6-difluorophenyl)thiazole-4-carboxamide] | 8.84 |
| Cn1ncc(NC(=O)c2nc(-c3c(F)cccc3F)sc2N)c1[C@H]1C[C@@H](O)CCO1 [Example 149, 5-amino-2-(2,6-difluorophenyl)-N-(5-((2R,4S)-4-hydroxytetrahydro-2H-pyran-2-yl)-1-methyl-1H-pyrazol-4-yl)thiazole-4-carboxamide] | 9.76 |
| Cn1ncc(NC(=O)c2nc(-c3c(F)cccc3F)sc2N)c1[C@@H]1CC(F)[C@H](N)CCO1 (stereo partly drawn) [Example 150, 5-Amino-N-[5-[(2S,5R)-5-amino-4-fluoro-oxepan-2-yl]-1-methyl-pyrazol-4-yl]-2-(2,6-difluorophenyl)thiazole-4-carboxamide] | 9.98 |
| Cn1ncc(NC(=O)c2nc(-c3c(F)cccc3F)sc2N)c1[C@H]1CC(F)[C@@H](N)CCO1 (stereo partly drawn) [Example 151, 5-Amino-N-[5-[(2R,5S)-5-amino-4-fluoro-oxepan-2-yl]-1-methyl-pyrazol-4-yl]-2-(2,6-difluorophenyl)thiazole-4-carboxamide] | 10.17 |
| Cn1ncc(NC(=O)c2nc(-c3c(F)cccc3F)sc2N)c1[C@H]1CC[C@H](F)[C@@H](N)CO1 [Example 153, 5-Amino-N-[5-[(2R,5S,6S)-6-amino-5-fluoro-oxepan-2-yl]-1-methyl-pyrazol-4-yl]-2-(2,6-difluorophenyl)thiazole-4-carboxamide] | 9.94 |
| Cn1ncc(NC(=O)c2nc(-c3ccccc3OC(F)(F)F)sc2N)c1[C@@H]1CC[C@@H](N)[C@H](F)CO1 [Example 157, 5-amino-N-(5-((2S,5R,6S)-5-amino-6-fluorooxepan-2-yl)-1-methyl-1H-pyrazol-4-yl)-2-(2-(trifluoromethoxy)phenyl)thiazole-4-carboxamide] | 9.02 |
| Cn1ncc(NC(=O)c2nc(-c3c(F)cccc3F)sc2N)c1[C@H]1C[C@@H](N)CCO1 [Example 159, 5-Amino-N-[5-[(2R,4S)-4-aminotetrahydropyran-2-yl]-1-methyl-pyrazol-4-yl]-2-(2,6-difluorophenyl)thiazole-4-carboxamide] | 10.72 |
| Cn1ncc(NC(=O)c2nc(-c3c(F)cccc3F)sc2N)c1[C@@H]1C[C@H](N)CCO1 [Example 160, 5-Amino-N-[5-[(2S,4R)-4-aminotetrahydropyran-2-yl]-1-methyl-pyrazol-4-yl]-2-(2,6-difluorophenyl)thiazole-4-carboxamide] | 9.61 |
| CC[C@]1(CO)CO[C@H](c2c(NC(=O)c3nc(-c4c(F)cccc4F)sc3N)cnn2C)OC1 [Example 162, 5-Amino-2-(2,6-difluorophenyl)-N-[5-[5-ethyl-5-(hydroxymethyl)-1,3-dioxan-2-yl]-1-methyl-pyrazol-4-yl]thiazole-4-carboxamide] | 10.60 |
| Cn1ncc(NC(=O)c2nc(-c3c(F)cccc3F)sc2N)c1C1OCC(CO)CO1 (centres unmarked) [Example 164, 5-Amino-2-(2,6-difluorophenyl)-N-[5-[5-(hydroxymethyl)-1,3-dioxan-2-yl]-1-methyl-pyrazol-4-yl]thiazole-4-carboxamide] | 9.98 |
| Cn1ncc(NC(=O)c2nc(-c3c(F)cccc3F)sc2N)c1[C@H]1OC[C@@](C)(CO)CO1 [Example 166, 5-Amino-2-(2,6-difluorophenyl)-N-[5-[5-(hydroxymethyl)-5-methyl-1,3-dioxan-2-yl]-1-methyl-pyrazol-4-yl]thiazole-4-carboxamide] | 9.29 |
| Cn1ncc(NC(=O)c2nc(-c3c(F)cccc3F)sc2N)c1[C@H]1OC[C@H](CN)CO1 [Example 167, 5-Amino-N-[5-[5-(aminomethyl)-1,3-dioxan-2-yl]-1-methyl-pyrazol-4-yl]-2-(2,6-difluorophenyl)thiazole-4-carboxamide] | 10.54 |
| Cn1ncc(NC(=O)c2nc(-c3c(F)cccc3F)sc2N)c1[C@@H]1CC[C@@H](N)C(F)(F)CO1 [Example 168, 5-Amino-N-[5-[(2S,5R)-5-amino-6,6-difluoro-oxepan-2-yl]-1-methyl-pyrazol-4-yl]-2-(2,6-difluorophenyl)thiazole-4-carboxamide] | 10.89 |
| Cn1ncc(NC(=O)c2nc(-c3c(F)cccc3F)sc2N)c1[C@H]1CC[C@H](N)C(F)(F)CO1 [Example 169, 5-Amino-N-[5-[(2R,5S)-5-amino-6,6-difluoro-oxepan-2-yl]-1-methyl-pyrazol-4-yl]-2-(2,6-difluorophenyl)thiazole-4-carboxamide] | 9.47 |
| Cn1ncc(NC(=O)c2nc(-c3c(F)cccc3F)sc2N)c1[C@H]1CC[C@H](CN)O1 [Example 171, 5-Amino-N-[5-[(2R,5R)-5-(aminomethyl)tetrahydrofuran-2-yl]-1-methyl-pyrazol-4-yl]-2-(2,6-difluorophenyl)thiazole-4-carboxamide] | 10.57 |
| Cn1ncc(NC(=O)c2nc(-c3c(F)cccc3F)sc2N)c1[C@@H]1CC[C@@H](CN)O1 [Example 172, 5-Amino-N-[5-[(2S,5S)-5-(aminomethyl)tetrahydrofuran-2-yl]-1-methyl-pyrazol-4-yl]-2-(2,6-difluorophenyl)thiazole-4-carboxamide] | 9.82 |
| CC[C@]1(CN)CO[C@H](c2c(NC(=O)c3nc(-c4c(F)cccc4F)sc3N)cnn2C)OC1 [Example 173, 5-Amino-N-[5-[5-(aminomethyl)-5-ethyl-1,3-dioxan-2-yl]-1-methyl-pyrazol-4-yl]-2-(2,6-difluorophenyl)thiazole-4-carboxamide] | 10.82 |
| Cn1ncc(NC(=O)c2nc(-c3c(F)cccc3F)sc2N)c1[C@H]1OC[C@@](C)(CN)CO1 [Example 178, 5-Amino-N-[5-[5-(aminomethyl)-5-methyl-1,3-dioxan-2-yl]-1-methyl-pyrazol-4-yl]-2-(2,6-difluorophenyl)thiazole-4-carboxamide] | 9.81 |

The remaining lines, values ahead:

| pKi | SMILES |
| --- | --- |
| 9.33 | Cn1ncc(NC(=O)c2nc(-c3c(F)cccc3F)sc2N)c1C1CC(F)C(N)CCO1 (centres unmarked) [Example 140, 5-amino-N-(5-(5-amino-4-fluorooxepan-2-yl)-1-methyl-1H-pyrazol-4-yl)-2-(2,6-difluorophenyl)thiazole-4-carboxamide] |
| 10.02 | Cn1ncc(NC(=O)c2nc(-c3c(F)cccc3F)sc2N)c1[C@@H]1C[C@H](O)CCO1 [Example 146, 5-amino-2-(2,6-difluorophenyl)-N-(5-((2S,4R)-4-hydroxytetrahydro-2H-pyran-2-yl)-1-methyl-1H-pyrazol-4-yl)thiazole-4-carboxamide] |
| 9.85 | Cn1ncc(NC(=O)c2nc(-c3c(F)cccc3F)sc2N)c1C1CCC(N)COC1 (centres unmarked) [Example 147, 5-amino-N-[5-(6-aminooxepan-3-yl)-1-methyl-pyrazol-4-yl]-2-(2,6-difluorophenyl)thiazole-4-carboxamide] |
| 10.51 | Cn1ncc(NC(=O)c2nc(-c3c(F)cccc3F)sc2N)c1[C@H]1CC[C@H](N)C(F)(F)CO1 [Example 152] |
| 9.97 | Cn1ncc(NC(=O)c2nc(-c3cccc(C(F)(F)F)c3F)sc2N)c1[C@@H]1CC[C@@H](N)[C@H](F)CO1 [Example 156, 5-amino-N-(5-((2S,5R,6S)-5-amino-6-fluorooxepan-2-yl)-1-methyl-1H-pyrazol-4-yl)-2-(2-fluoro-3-(trifluoromethyl)phenyl)thiazole-4-carboxamide] |
| 8.90 | CC[C@]1(CO)CO[C@@H](c2c(NC(=O)c3nc(-c4c(F)cccc4F)sc3N)cnn2C)OC1 [Example 163, 5-Amino-2-(2,6-difluorophenyl)-N-[5-[5-ethyl-5-(hydroxymethyl)-1,3-dioxan-2-yl]-1-methyl-pyrazol-4-yl]thiazole-4-carboxamide] |
| 9.19 | Cn1ncc(NC(=O)c2nc(-c3c(F)cccc3F)sc2N)c1C1OCC(CO)CO1 (centres unmarked) [Example 165, 5-Amino-2-(2,6-difluorophenyl)-N-[5-[5-(hydroxymethyl)-1,3-dioxan-2-yl]-1-methyl-pyrazol-4-yl]thiazole-4-carboxamide] |
| 10.44 | Cn1ncc(NC(=O)c2nc(-c3c(F)cccc3F)sc2N)c1[C@H]1OC[C@](C)(CN)CO1 [Example 175, 5-Amino-N-[5-[5-(aminomethyl)-5-methyl-1,3-dioxan-2-yl]-1-methyl-pyrazol-4-yl]-2-(2,6-difluorophenyl)thiazole-4-carboxamide] |
| 9.23 | Cn1ncc(NC(=O)c2nc(-c3c(F)cccc3F)sc2N)c1[C@H]1CC[C@H](N)[C@@H](F)CO1 [Example 176, 5-Amino-N-[5-[(2R,5S,6R)-5-amino-6-fluoro-oxepan-2-yl]-1-methyl-pyrazol-4-yl]-2-(2,6-difluorophenyl)thiazole-4-carboxamide] |
